Test results: patent US20250195521A1 (Revolution Medicines, Inc., priority 2020, published 2025)
Like-named read-outs stand apart in the source and are kept apart here.

Assays:
[1] = tested on: K-Ras G12C (NCI-H358 cells); assay: Potency assay: pERK in NCI-H358 cells; format: cell-based, human; conditions: read-out: pERK EC50 (H358 KRAS G12C)
Summary of the method: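 Cells plated the day before were exposed for 4 h at 37° C, 5% CO2 to a 10-point, 3-fold DMSO dilution series (10 mM top stock), in duplicate. Phospho-ERK was read by AlphaLISA SureFire Ultra or by In-Cell Western with DRAQ5 DNA stain, and IC50 came from a 4-parameter sigmoidal fit.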

NCI-H358 (K-Ras G12C) = assay: CellTiter-Glo cell viability assay, NCI-H358; format: cell-based, human
Summary of the method: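 After direct compound addition, plates were incubated to day 5 and equilibrated at room temperature for about 30 minutes before CellTiter-Glo reading. Values derive from luminescence relative to the DMSO mean, fitted with a four-parameter logistic model.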

[2] = Homo sapiens, NCI-H358 cells, 4 hours
[3] = Homo sapiens, NCI-H358, 120 h, 5-day treatment, read-out: H358 Cell Viability assay data (K-Ras G12C, IC50)
[4] = Homo sapiens, NCI-H358, 120 h, read-out: H358 Cell Viability assay data (K-Ras G12C, IC50, uM), 5-day treatment
[5] = 5-day treatment, read-out: H358 Cell Viability assay data (K-Ras G12C, IC50)
[6] = read-out: H358 Cell Viability assay data (K-Ras G12C, IC50), 5-day treatment

| Structure (SMILES) | EC50 [1, 2] [nM] | IC50 (NCI-H358 (K-Ras G12C); [3]) [µM] | other results |
| --- | --- | --- | --- |
| C=CC(=O)N1CC[C@H](C(=O)N(C)[C@H](C(=O)N[C@H]2Cc3cccc(c3)-c3ccc4c(c3)c(c(-c3cccnc3[C@H](C)OC)n4CC)CC(C)(C)COC(=O)[C@@H]3CCCN(N3)C2=O)[C@@H](C)C(F)(F)F)C1 (atropisomer, axis not shown) [Compound A640] | < 5000 | 0.01 to 0.1 | – |
| C=CC(=O)N1CC[C@H](C(=O)N(C)[C@H](C(=O)N[C@H]2Cc3cc(N)cc(c3)-c3ccc4c(c3)c(c(-c3ccccc3COC)n4CC)CC(C)(C)COC(=O)[C@@H]3CCCN(N3)C2=O)C(C)C)C1 [Compound A2] | < 5000 | > 10 | – |
| C=CC(=O)N1CC[C@H](C(=O)N(C)[C@H](C(=O)N[C@H]2Cc3cc(O)cc(c3)-c3ccc4c(c3)c(c(-c3ccc(CC(=O)O)nc3)n4CC)CC(C)(C)COC(=O)[C@@H]3CCCN(N3)C2=O)C(C)C)C1 [Compound A21] | – | – | EC50 ([1]; Homo sapiens, NCI-H358, 4 h): < 5000 nM; IC50 (NCI-H358 (K-Ras G12C); [4]): > 10 µM |
| C=CC(=O)N1CC[C@H](C(=O)N(C)[C@H](C(=O)N[C@H]2Cc3cc(O)cc(c3)-c3ccc4c(c3)c(c(-c3ncccc3[C@H](C)OC)n4CC)CC(C)(C)COC(=O)[C@@H]3CCCN(N3)C2=O)C(C)C)C1 [Compound A22] | – | – | EC50 ([1]; Homo sapiens, NCI-H358, 4 h): < 5000 nM; IC50 (NCI-H358 (K-Ras G12C); [4]): 0.01 to 0.1 µM |
| C=CC(=O)N1CC[C@H](C(=O)N(C)[C@H](C(=O)N[C@H]2Cc3cc(O)cc(c3)-c3ccc4c(c3)c(c(-c3ccccc3CCOC)n4CC)CC(C)(C)COC(=O)[C@@H]3CCCN(N3)C2=O)C(C)C)C1 [Compound A24] | < 5000 | > 10 | – |
| CCn1c(-c2cnccc2COC)c2c3cc(ccc31)-c1cc(O)cc(c1)C[C@H](NC(=O)[C@H](C(C)C)N(C)C(=O)N1CC(OC)C1)C(=O)N1CCC[C@H](N1)C(=O)OCC(C)(C)C2 [Compound A30] | < 5000 | 0.01 to 0.1 | – |
| C=CC(=O)N1CC[C@H](C(=O)N(C)[C@H](C(=O)N[C@H]2Cc3cc(O)cc(c3)-c3ccc4c(c3)c(c(-c3ccccc3CCOC)n4C(C)(C)C#N)CC(C)(C)COC(=O)[C@@H]3CCCN(N3)C2=O)C(C)C)C1 [Compound A34] | – | – | EC50 ([1]; NCI-H358 cells, 4 hours): < 5000 nM; IC50 (NCI-H358 (K-Ras G12C); [5]): 0.01 to 0.1 µM |
| CCn1c(-c2cnccc2COC)c2c3cc(ccc31)-c1cc(O)cc(c1)C[C@H](NC(=O)[C@H](C(C)C)N(C)C(=O)CN1CCOCC1)C(=O)N1CCC[C@H](N1)C(=O)OCC(C)(C)C2 [Compound A65] | < 5000 | 0.1 to 1 | – |
| CCn1c(-c2cnccc2COC)c2c3cc(ccc31)-c1cc(O)cc(c1)C[C@H](NC(=O)[C@H](C(C)C)N(C)CC(F)(F)F)C(=O)N1CCC[C@H](N1)C(=O)OCC(C)(C)C2 [Compound A77] | < 5000 | 0.01 to 0.1 | – |
| CCn1c(-c2cnccc2COC)c2c3cc(ccc31)-c1cc(O)cc(c1)C[C@H](NC(=O)[C@H](C(C)C)N(C)C(=O)[C@@H]1CCCO1)C(=O)N1CCC[C@H](N1)C(=O)OCC(C)(C)C2 [Compound A91] | < 5000 | < 0.01 | – |
| CCn1c(-c2cccnc2[C@H](C)OC)c2c3cc(ccc31)-c1cc(O)cc(c1)C[C@H](NC(=O)[C@H](C(C)C)N(C)C(=O)[C@H]1CCN(C(=O)CN(C)C)C1)C(=O)N1CCC[C@H](N1)C(=O)OCC(C)(C)C2 [Compound A95] | < 5000 | 0.01 to 0.1 | – |
| CC#CC(=O)N1CC[C@H](C(=O)N(C)[C@H](C(=O)N[C@H]2Cc3cc(O)cc(c3)-c3ccc4c(c3)c(c(-c3cccnc3[C@H](C)OC)n4CC)CC(C)(C)COC(=O)[C@@H]3CCCN(N3)C2=O)C(C)C)C1 [Compound A145, (2S)-2-{1-[(3S)-1-(but-2-ynoyl)pyrrolidin-3-yl]-N-methylformamido}-N-[(8S,14S,20M)-22-ethyl-4-hydroxy-21-{2-[(1S)-1-methoxyethyl]pyridin-3-yl}-18, 18-dimethyl-9,15-dioxo-16-oxa-10,22,28-triazapentacyclo [18.5.2.1^2,6.1^10,14.0^23,27]nonacosa-1 (26),2,4,6 (29),20,23 (27),24-heptaen-8-yl]-3-methylbutanamide] | – | – | EC50 ([1]; Homo sapiens, NCI-H358, 4 h): < 5000 nM; IC50 (NCI-H358 (K-Ras G12C); [4]): < 0.01 µM; IC50 (NCI-H358 (K-Ras G12C); [6]): 0.01 to 0.1 µM |
| CC#CC(=O)N1CC[C@H](C(=O)N(C)[C@@H](C(=O)N[C@H]2Cc3cc(O)cc(c3)-c3ccc4c(c3)c(c(-c3cccnc3[C@H](C)OC)n4CC)CC(C)(C)COC(=O)[C@@H]3CCCN(N3)C2=O)C(C)C)C1 [Compound A199] | – | – | EC50 ([1]; Homo sapiens, NCI-H358, 4 h): < 5000 nM; IC50 (NCI-H358 (K-Ras G12C); [6]): 0.1 to 1 µM |
| CCn1c(-c2cccnc2[C@H](C)OC)c2c3cc(ccc31)-c1cccc(c1)C[C@H](NC(=O)[C@H](C(C)C)N(C)C(=O)[C@H]1CCN(C(=O)/C=C/CN3CC(OC)C3)C1)C(=O)N1CCC[C@H](N1)C(=O)OCC(C)(C)C2 [Compound A203] | – | – | EC50 ([1]; NCI-H358 cells, 4 hours): < 5000 nM; IC50 (NCI-H358 (K-Ras G12C); [5]): > 10 µM |
| CCn1c(-c2cccnc2[C@H](C)OC)c2c3cc(ccc31)-c1cccc(c1)C[C@H](NC(=O)[C@H](C(C)C)N(C)C(=O)[C@H]1CCN(C(=O)/C=C/CN3CC(OC)C3)C1)C(=O)N1CCC[C@H](N1)C(=O)OCC(C)(C)C2 [Compound A204] | < 5000 | – | IC50 (NCI-H358 (K-Ras G12C); [5]): 0.01 to 0.1 µM |
| CCn1c(-c2cccnc2[C@H](C)OC)c2c3cc(ccc31)-c1cc(O)cc(c1)C[C@H](NC(=O)[C@H](C(C)C)N(C)C(=O)C1(CO)CC1)C(=O)N1CCC[C@H](N1)C(=O)OCC(C)(C)C2 [Compound A232] | < 5000 | 0.01 to 0.1 | – |
| C=CC(=O)N1CC[C@H](C(=O)N(C)[C@H](C(=O)N[C@H]2Cc3cc(sn3)-c3ccc4c(c3)c(c(-c3cccnc3[C@H](C)OC)n4CC)CC(C)(C)COC(=O)[C@@H]3CCCN(N3)C2=O)C(C)C)C1 [Compound A340] | < 5000 | 0.1 to 1 | – |
| CCn1c(-c2cccnc2[C@H](C)OC)c2c3cc(ccc31)-c1csc(n1)C[C@H](NC(=O)[C@H](C(C)C)N(C)C(=O)N1CC3(CC(O)C3)C1)C(=O)N1CCC[C@H](N1)C(=O)OCC(C)(C)C2 [Compound A510] | < 5000 | 0.01 to 0.1 | – |
| C=CC(=O)N1CC[C@H](C(=O)N(C)[C@H](C(=O)N[C@H]2Cc3nc(cs3)-c3ccc4c(c3)c(c(-c3cc(C5=CCN(C)CC5)cnc3[C@H](C)OC)n4CC)CC(C)(C)COC(=O)[C@@H]3CCCN(N3)C2=O)C(C)C)C1 [Compound A520] | – | – | IC50 (NCI-H358 (K-Ras G12C); [5]): < 0.01 µM |
| C=CC(=O)N1CC[C@H](C(=O)N(C)[C@H](C(=O)N[C@H]2Cc3cccc(c3)-c3ccc4c(c3)c(c(-c3cc(CN(C)C)cnc3[C@H](C)OC)n4CC)CC(C)(C)COC(=O)[C@@H]3CCCN(N3)C2=O)C(C)C)C1 [Compound A523] | – | – | IC50 (NCI-H358 (K-Ras G12C); [5]): 0.1 to 1 µM |
| CO[C@@H](COC1CN(C(=O)C#CC(C)(C)N(C)C)C1)C(=O)N[C@H]1Cc2cccc(c2)-c2ccc3c(c2)c(c(-c2cccnc2[C@H](C)OC)n3CC(F)(F)F)CC(C)(C)COC(=O)[C@@H]2CCCN(N2)C1=O [Compound A556] | – | < 0.01 | – |

Further lines, with some results ahead:

| EC50 [1, 2] [nM] | IC50 (NCI-H358 (K-Ras G12C); [3]) [µM] | Structure (SMILES) | other results |
| --- | --- | --- | --- |
| < 5000 | < 0.01 | CCn1c(-c2cccnc2[C@H](C)OC)c2c3cc(ccc31)-c1csc(n1)C[C@H](NC(=O)[C@H](C(C)C)N(C)C(=O)N1CC[C@]3(CCN(C)C3=O)C1)C(=O)N1CCC[C@H](N1)C(=O)OCC(C)(C)C2 (single isomer, unassigned) [Compound A461] | – |
| < 5000 | 0.1 to 1 | CCn1c(-c2cccnc2[C@H](C)OC)c2c3cc(ccc31)-c1cc(O)cc(c1)C[C@H](NC(=O)[C@H](C(C)C)N(C)C(=O)C1COC1)C(=O)N1CCC[C@H](N1)C(=O)OCC(C)(C)C2 [Compound A18] | – |
| < 5000 | 0.01 to 0.1 | CCn1c(-c2ccccc2CCOC)c2c3cc(ccc31)-c1cc(O)cc(c1)C[C@H](NC(=O)[C@H](C(C)C)N(C)C(=O)CCN)C(=O)N1CCC[C@H](N1)C(=O)OCC(C)(C)C2 [Compound A70] | – |
| < 5000 | 0.1 to 1 | CCn1c(-c2cnccc2COC)c2c3cc(ccc31)-c1cc(O)cc(c1)C[C@H](NC(=O)[C@H](C(C)C)N(C)C(=O)[C@@H]1CN(C(C)=O)C[C@@H]1C(F)(F)F)C(=O)N1CCC[C@H](N1)C(=O)OCC(C)(C)C2 [Compound A80] | – |
| < 5000 | < 0.01 | CCn1c(-c2cccnc2[C@H](C)OC)c2c3cc(ccc31)-c1cc(O)cc(c1)C[C@H](NC(=O)[C@H](C(C)C)N(C)C(=O)C13CNCC1C3)C(=O)N1CCC[C@H](N1)C(=O)OCC(C)(C)C2 (some centres unmarked) [Compound A155] | IC50 (NCI-H358 (K-Ras G12C); [5]): 0.01 to 0.1 µM |
| < 5000 | 0.01 to 0.1 | CCn1c(-c2cccnc2[C@H](C)OC)c2c3cc(ccc31)-c1cc(O)cc(c1)C[C@H](NC(=O)[C@H](C(C)C)N(C)C(=O)C1CC13CC3)C(=O)N1CCC[C@H](N1)C(=O)OCC(C)(C)C2 (some centres unmarked) [Compound A156] | – |
| < 5000 | < 0.01 | CCn1c(-c2cccnc2[C@H](C)OC)c2c3cc(ccc31)-c1cc(O)cc(c1)C[C@H](NC(=O)[C@H](C(C)C)N(C)C(=O)[C@H]1CCN(C(=O)[C@@H]3CCCN3C)C1)C(=O)N1CCC[C@H](N1)C(=O)OCC(C)(C)C2 [Compound A385] | – |
| – | 0.01 to 0.1 | CCn1c(-c2cccnc2[C@H](C)OC)c2c3cc(ccc31)-c1csc(n1)C[C@H](NC(=O)[C@H](C(C)C)N(C)C(=O)N1C3CC1CN(C)C3)C(=O)N1CCC[C@H](N1)C(=O)OCC(C)(C)C2 [Compound A541] | – |
| < 5000 | < 0.01 | CCn1c(-c2cccnc2[C@H](C)OC)c2c3cc(ccc31)-c1csc(n1)C[C@H](NC(=O)[C@H](C(C)C)N(C)C(=O)N1CC(N(C)S(C)(=O)=O)C1)C(=O)N1CCC[C@H](N1)C(=O)OCC(C)(C)C2 [Compound A550] | – |
| – | < 0.01 | CCn1c(-c2cccnc2[C@H](C)OC)c2c3cc(ccc31)-c1cccc(c1)C[C@H](NC(=O)[C@H](C(C)C)N1CC[C@]3(CCN(C(=O)C#C[C@]4(N(C)C)CCOC4)C3)C1=O)C(=O)N1CCC[C@H](N1)C(=O)OCC(C)(C)C2 [Compound A559] | – |
